Activity calls are given as the source filed them. The rule behind the calls is not given here.
Legend:
BT-549 [1] = test: Induction of apoptosis in human BT-549 cells assessed as necrotic cells at 0.5 uM incubated for 24 hrs by Annexin V-PI staining based flow cytometric analysis (reference value: 3.32%); type: functional
BT-549 [2] = test: Antiproliferative activity against human BT-549 cells xenografted in female BALB/c mouse model assessed as fold change in downregulation of MMP-2 protein level at 5 mg/kg administered subcutaneously incubated for 24 hrs by Western blot analysis (reference value: 1.00%); type: functional; conditions: route sc
MDA-MB-231 [3] = test: Inhibition of glycolysis in human MDA-MB-231 cells assessed as decrease in PKM2 protein level at 0.5 to 2 uM incubated for 24 hrs by Western blot analysis; type: functional, cell-based; conditions: dose 0.5-2 µM
MDA-MB-231 [4] = test: Induction of ER stress in human MDA-MB-231 cells assessed as activation of CHOP protein level incubated for 24 hrs by Western blot analysis; type: functional, cell-based; conditions: dose 0.5-2 µM
BT-549 [5] = test: Antiproliferative activity against human BT-549 cells xenografted in female BALB/c mouse model assessed as fold change in upregulation of BIP protein level at 20 mg/kg administered subcutaneously incubated for 24 hrs by Western blot analysis (reference value: 1.00%); type: functional; conditions: route sc
BT-549 [6] = test: Inhibition of DNA replication in human BT-549 cells assessed as reduction in EDU fluorescence intensity by EDU staining based fluorescence microscopic analysis; type: functional, cell-based; conditions: dose 0.5-2 µM
BT-549 [7] = test: Induction of apoptosis in human BT-549 cells assessed as upregulation of cleavage of caspase-8 expression at 0.5 to 2 uM incubated for 24 hrs by Western blot analysis; type: functional, cell-based; conditions: dose 0.5-2 µM
MDA-MB-231 [8] = test: Antiproliferative activity against human MDA-MB-231 cells xenografted in female BALB/c mouse model assessed as fold change in cleavage of caspase-3 level at 10 mg/kg administered subcutaneously incubated for 24 hrs by Western blot analysis (reference value: 1.00%); type: functional; conditions: route sc
MDA-MB-231 [9] = test: Inhibition of cell proliferation in human MDA-MB-231 cells assessed as reduction in Ki-67 expression at 0.5 to 2 uM incubated for 24 hrs by DAPI staining based immunofluorescence analysis; type: functional; conditions: dose 0.5-2 µM
BT-549 [10] = test: Inhibition of glycolysis in human BT-549 cells assessed as decrease in PKM2 protein level at 0.5 to 2 uM incubated for 24 hrs by Western blot analysis; type: functional, cell-based; conditions: dose 0.5-2 µM
MDA-MB-231 [11] = test: Induction of ER stress in human MDA-MB-231 cells assessed as increase in calcium ion content at 2 uM incubated for 24 hrs by Fluo-3AM staining based flow cytometric analysis; type: functional, cell-based
BT-549 [12] = test: Antitumor activity against human BT-549 cells xenografted in female BALB/c mouse model assessed as reduction in tumor volume administered subcutaneously and measured every day; type: functional, cell-based; conditions: dose 5-20 mg/kg, route sc
BT-549 [13] = test: Antiproliferative activity against human BT-549 cells xenografted in female BALB/c mouse model assessed as fold change in downregulation of MMP-2 protein level at 20 mg/kg administered subcutaneously incubated for 24 hrs by Western blot analysis (reference value: 1.00%); type: functional; conditions: route sc
MDA-MB-231 [14] = test: Antitumor activity against human MDA-MB-231 cells xenografted in female BALB/c mouse model assessed as reduction in tumor volume administered subcutaneously and measured every day; type: functional, cell-based; conditions: dose 5-20 mg/kg, route sc
MDA-MB-231 [15] = test: Induction of apoptosis in human MDA-MB-231 cells assessed as early apoptotic cells at 0.5 uM incubated for 24 hrs by Annexin V-PI staining based flow cytometric analysis (reference value: 0.42%); type: functional
BT-549 [16] = test: Inhibition of glycolysis in human BT-549 cells assessed as reduction in glucose uptake at 0.5 to 2 uM incubated for 24 hrs followed by 2-NBDG staining based flow cytometric analysis; type: functional, cell-based; conditions: dose 0.5-2 µM
MDA-MB-231 [17] = test: Antitumor activity against human MDA-MB-231 cells xenografted in female BALB/c mouse model assessed as reduction of proliferation rate of tumor at 5 to 20 mg/kg administered subcutaneously and measured every day; type: functional, organism-based; conditions: dose 5-20 mg/kg, route sc
MDA-MB-231 [18] = test: Inhibition of glycolysis in human MDA-MB-231 cells assessed as reduction in glucose uptake at 0.5 to 2 uM incubated for 24 hrs followed by 2-NBDG staining based flow cytometric analysis; type: functional, cell-based; conditions: dose 0.5-2 µM
[19] = Toxicity in female BALB/c mouse xenografted with human BT-549 cells assessed as effect on pathological changes in kidney at 5 to 20 mg/kg, sc by H and E staining based analysis; type: organism-based; conditions: in vivo, dose 5-20 mg/kg
BT-549 [20] = test: Antiproliferative activity against human BT-549 cells xenografted in female BALB/c mouse model assessed as fold change in cleavage of caspase-3 level at 20 mg/kg administered subcutaneously incubated for 24 hrs by Western blot analysis (reference value: 1.00%); type: functional; conditions: route sc
BT-549 [21] = test: Antiproliferative activity against human BT-549 cells xenografted in female BALB/c mouse model assessed as increase in E-cadherin level at 5 to 20 mg/kg administered subcutaneously by immunohistochemical staining based microscopic analysis; type: functional, organism-based; conditions: dose 5-20 mg/kg, route sc
MDA-MB-231 [22] = test: Antiproliferative activity against human MDA-MB-231 cells xenografted in female BALB/c mouse model assessed as fold change in inhibition of PKM2 expression at 20 mg/kg administered subcutaneously incubated for 24 hrs by Western blot analysis (reference value: 1.00%); type: functional; conditions: route sc
MDA-MB-231 [23] = test: Inhibition of glycolysis in human MDA-MB-231 cells assessed as decrease in LDHA protein level at 0.5 to 2 uM incubated for 24 hrs by Western blot analysis; type: functional, cell-based; conditions: dose 0.5-2 µM
MDA-MB-231 [24] = test: Antiproliferative activity against human MDA-MB-231 cells xenografted in female BALB/c mouse model assessed as fold change in upregulation of BIP protein level at 5 mg/kg administered subcutaneously incubated for 24 hrs by Western blot analysis (reference value: 1.00%); type: functional; conditions: route sc
[25] = Toxicity in female BALB/c mouse xenografted with human MDA-MB-231 cells assessed as effect on body weight at 5 to 20 mg/kg, sc and measured daily; type: organism-based; conditions: in vivo, dose 5-20 mg/kg
MDA-MB-231 [26] = test: Induction of apoptosis in human MDA-MB-231 cells assessed as early apoptotic cells at 2 uM incubated for 24 hrs by Annexin V-PI staining based flow cytometric analysis (reference value: 0.42%); type: functional
MDA-MB-231 [27] = test: Inhibition of cell migration in human MDA-MB-231 cells assessed as decrease in MMP-2 level incubated for 24 hrs by Western blot analysis; type: functional, cell-based; conditions: dose 0.5-2 µM
BT-549 [28] = test: Inhibition of cell proliferation in human BT-549 cells assessed as reduction in Ki-67 expression at 0.5 to 2 uM incubated for 24 hrs by DAPI staining based immunofluorescence analysis; type: functional; conditions: dose 0.5-2 µM
BT-549 [29] = test: Induction of apoptosis in human BT-549 cells assessed as upregulation of Bax expression at 0.5 to 2 uM incubated for 24 hrs by Western blot analysis; type: functional, cell-based; conditions: dose 0.5-2 µM
MDA-MB-231 [30] = test: Antiproliferative activity against human MDA-MB-231 cells xenografted in female BALB/c mouse model assessed as fold change in cleavage of caspase-3 level at 20 mg/kg administered subcutaneously incubated for 24 hrs by Western blot analysis (reference value: 1.00%); type: functional; conditions: route sc
MDA-MB-231 [31] = test: Inhibition of cell migration in human MDA-MB-231 cells assessed as reduction in MMP-2 protein level at 1 uM incubated for 24 hrs by DAPI staining based immunofluorescence analysis; type: functional
BT-549 [32] = test: Antiproliferative activity against human BT-549 cells xenografted in female BALB/c mouse model assessed as fold change in inhibition of PKM2 expression at 20 mg/kg administered subcutaneously incubated for 24 hrs by Western blot analysis (reference value: 1.05%); type: functional; conditions: route sc

Compound: CC(C)=CCC/C(C)=C/[C@H]1OC(=O)CC12C[C@H](OC(=O)Cc1ccc(NC(=O)/C=C/c3ccccc3)cc1)C=CC2=O (some centres not stated)
- Activity (BT-549 [1]): 3.73%
- fold change (FC) (BT-549 [2]): 0.99
- inhibition (MDA-MB-231 [3]): Active
- Activity (MDA-MB-231 [4]): Dose-Dependent Effect
- fold change (FC) (BT-549 [5]): 2.37
- inhibition (BT-549 [6]): Dose-Dependent Effect
- Activity (BT-549 [7]): Active
- fold change (FC) (MDA-MB-231 [8]): 1.67
- inhibition (MDA-MB-231 [9]): Active
- inhibition (BT-549 [10]): Active
- Activity (MDA-MB-231 [11]): Active
- Activity (BT-549 [12]): Dose-Dependent Effect
- fold change (FC) (BT-549 [13]): 0.17
- Activity (MDA-MB-231 [14]): Dose-Dependent Effect
- Activity (MDA-MB-231 [15]): 0.83%
- inhibition (BT-549 [16]): Active
- Activity (MDA-MB-231 [17]): Active
- inhibition (MDA-MB-231 [18]): Active
- Activity [19]: Non-Toxic
- fold change (FC) (BT-549 [20]): 1.74
- Activity (BT-549 [21]): Active
- fold change (FC) (MDA-MB-231 [22]): 0.31
- inhibition (MDA-MB-231 [23]): Active
- fold change (FC) (MDA-MB-231 [24]): 2.18
- Activity [25]: Non-Toxic
- Activity (MDA-MB-231 [26]): 2.23%
- inhibition (MDA-MB-231 [27]): Dose-Dependent Effect
- inhibition (BT-549 [28]): Active
- Activity (BT-549 [29]): Active
- fold change (FC) (MDA-MB-231 [30]): 2.09
- inhibition (MDA-MB-231 [31]): Active
- fold change (FC) (BT-549 [32]): 0.16

Reference: ChEMBL document CHEMBL6071165, “Design, synthesis and biological evaluation of plant-derived miliusol derivatives achieve TNBC profound regression in vivo” (Eur J Med Chem, 2024)
